According to patent US20230002373A1, “COMPOUNDS AND COMPOSITIONS FOR TREATING CONDITIONS ASSOCIATED WITH STING ACTIVITY” (IFM Due, Inc., priority 2019, published 2023):

Target: T1, hSTING (Homo sapiens, UniProt Q86WV6, G230A/H232R/R293Q/R71H)
T1 construct: host or cells: THP1-Dual KO-IFNAR2 cells
Assay: STING reporter assay (luciferase) in THP1-Dual KO-IFNAR2 cells stimulated with 2′3′cGAMP
Type: cell-based
Settings: 15 μM 2′3′cGAMP, 24 h, class symbols
Protocol: STING pathway activation by the compounds described herein was measured using THP1-Dual™ cells (KO-IFNAR2).
THP1-Dual™ KO-IFNAR2 Cells (obtained from invivogen) were maintained in RPMI, 10% FCS, 5 ml P/S, 2 mM L-glut, 10 mM Hepes, and 1 mM sodium pyruvate. Compounds were spotted in empty 384 well tissue culture plates (Greiner 781182) by Echo for a final concentration of 0.0017-100 μM. Cells were plated into the TC plates […], 2×10E6 cells/mL. For activation with STING ligand, 2′3′cGAMP (MW 718.38, obtained from Invivogen), was prepared in Optimem media.
The following solutions were prepared for each 1×384 plate: • Solution A: 2 mL Optimem with one of the following stimuli: • 60 μL of 10 mM 2′3′cGAMP->150 μM stock • Solution B: 2 mL Optimem with 60 μL Lipofectamine 2000->Incubate 5 min at RT
2 mL of solution A and 2 ml Solution B was mixed and incubated for 20 min at room temperature (RT). 20 uL of transfection solution (A+B) was added on top of the plated cells, with a final 2′3′cGAMP concentration of 15 μM. The plates were then centrifuged immediately at 340 g for 1 minute, after which they were incubated at 37° C., 5% CO2, >98% humidity for 24 h. Luciferase reporter activity was then measured. EC50 values were calculated by using standard methods known in the art.
Luciferase reporter assay: 10 μL of supernatant from the assay was transferred to white 384-plate with flat bottom and squared wells. One pouch of QUANTI-Luc™ Plus was dissolved in 25 mL of water. 100 μL of QLC Stabilizer per 25 mL of QUANTI-Luc™ Plus solution was added. 50 μL of QUANTI-Luc™ Plus/QLC solution per well was then added. Luminescence was measured on a Platereader (e.g., Spectramax I3X (Molecular Devices GF3637001)).
Luciferase reporter activity was then measured. EC50 values were calculated by using standard methods known in the art.

T1 sequence (Q86WV6 whole entry R71H/G230A/H232R/R293Q): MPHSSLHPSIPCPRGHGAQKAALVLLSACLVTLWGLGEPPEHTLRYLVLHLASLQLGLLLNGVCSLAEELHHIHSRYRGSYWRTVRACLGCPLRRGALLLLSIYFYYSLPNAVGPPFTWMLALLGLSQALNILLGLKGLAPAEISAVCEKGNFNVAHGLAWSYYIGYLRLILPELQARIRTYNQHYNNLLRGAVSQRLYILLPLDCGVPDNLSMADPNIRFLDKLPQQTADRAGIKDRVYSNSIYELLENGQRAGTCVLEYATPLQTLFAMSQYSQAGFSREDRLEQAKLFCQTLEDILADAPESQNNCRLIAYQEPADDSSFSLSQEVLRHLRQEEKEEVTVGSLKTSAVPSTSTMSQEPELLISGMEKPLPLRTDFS

SMILES | EC50
O=C(Nc1c[nH]c2ncc(F)cc12)C(=O)NC1CCC2(CCCC2)C1 (stereo not drawn) [Compound 203] | 5000 to 100000 nM
O=C(Nc1c[nH]c2ncc(F)cc12)C(=O)NC1CCC2(CCCCC2)C1 (stereo not drawn) [Compound 204, N-(5-fluoro-1H-pyrrolo[2,3-b]pyridin-3-yl)-N′-(spiro[4.5]decan-2-yl)oxalamide] | 5000 to 100000 nM
C[C@@H](NC(=O)C(=O)Nc1c[nH]c2c(F)cncc12)c1ccc(C(F)(F)F)cc1 [Compound 205] | 1000 to 5000 nM
CC(C)n1cc(-c2ccc3[nH]cc(NC(=O)C(=O)Nc4ccc(C5CCCCC5)cn4)c3n2)cn1 [Compound 206, N-(5-cyclohexylpyridin-2-yl)-N′-(5-(1-isopropyl-1H-pyrazol-4-yl)-1H-pyrrolo[3,2-b]pyridin-3-yl)oxalamide] | 1000 to 5000 nM
Cc1ccc2[nH]cc(NC(=O)C(=O)Nc3ccc(C4CCCCC4)cn3)c2n1 [Compound 207] | 200 to 1000 nM
O=C(NCc1ccc(Cl)c(OC(F)(F)F)c1)C(=O)Nc1c[nH]c2c(F)cncc12 [Compound 208] | 1000 to 5000 nM
Cc1ccccc1N1C2CCC1CC(NC(=O)C(=O)Nc1c[nH]c3ncc(F)cc13)C2 (stereo not drawn) [Compound 209, N-[5-fluoro-1H-pyrrolo[2,3-b]pyridin-3-yl]-N′-[8-(2-methylphenyl)-8-azabicyclo[3.2.1]octan-3-yl]ethanediamide] | 1000 to 5000 nM
O=C(Nc1ccc(C2CCCCC2)cn1)C(=O)Nc1c[nH]c2ccc(Br)nc12 [Compound 210] | 200 to 1000 nM
O=C(NCc1ccc(OC(F)(F)F)c(Cl)c1)C(=O)Nc1c[nH]c2ccncc12 [Compound 211] | 200 to 1000 nM
O=C(NCc1ccc(Cl)c(OC(F)(F)F)c1)C(=O)Nc1c[nH]c2ccncc12 [Compound 212] | 200 to 1000 nM
Cc1cc(CNC(=O)C(=O)Nc2c[nH]c3cnccc23)ccc1C(F)(F)F [Compound 213] | 1000 to 5000 nM
COc1cc2c(NC(=O)C(=O)NCc3ccc(C)c(C(F)(F)F)c3)c[nH]c2cn1 [Compound 214] | 1000 to 5000 nM
COc1ccc2[nH]cc(NC(=O)C(=O)NCc3ccc(C)c(C(F)(F)F)c3)c2n1 [Compound 215] | 200 to 1000 nM
O=C(Nc1ccc(C(F)(F)F)c(Cl)c1)C(=O)Nc1c[nH]c2ccncc12 [Compound 216] | 200 to 1000 nM
O=C(Nc1ccc(C(F)(F)F)c(Cl)c1)C(=O)Nc1c[nH]c2cccnc12 [Compound 217] | 1000 to 5000 nM
